Measured values taken from patent US4501914A, “2-Hydroxy-3-(o-methoxy-phenoxy)propyl 2-(p-isobutyl-phenyl)-propionate and pharmaceutical compositions containing the same” (priority 1982, dated 1985).

Legend:
[1] = system: Subplantar oedema induced by carrageenin; experiment: Anti-inflammatory activity - carrageenin oedema; assay type: in vivo, rats; conditions: for AREA % Absolute value / AREA % inhibition over controls: times 0-5
Experimental: The tests were carried out on rats, using a test in which a subplantar oedema was induced by carrageenin.
AFP 860 and, for comparison, 2-(p-isobutylphenyl)propionic acid (Ibuprofen) were administered orally 30 minutes before the carrageenin at the dosages specified below.
When the oedema had been induced, the animals in each group were monitored, every 60 minutes for 5 consecutive hours in order to ascertain the development of the inflammatory process.

[2] = Acute toxicity (Litchfield and Wilcoxon's Method), rat; conditions: in vivo, po, per os
Experimental: (§1) The acute toxicity was tested on various species of animal using Litchfield and Wilcoxon's Method (J. Pharm. Exp. Therap., 96, 99-113 (1949).

[3] = Pharmacokinetics, Ibuprofen plasma levels; assay type: in vivo, Charles River albino rats
[4] = Acute toxicity (Litchfield and Wilcoxon's Method), rabbit; conditions: in vivo, po, per os
Experimental: as §1

[5] = Pulmonary tropism, Ibuprofen lung/plasma concentration ratio; assay type: in vivo, Charles River albino rats; conditions: rat
[6] = system: contortions induced by phenylquinone; experiment: Analgesic activity - phenylquinone contortions (Siegmund et al.); assay type: in vivo, mouse; conditions: for % inhib. over controls (contortions) / Mean No. of Contortions / No. animals undergoing contortions: 100 mg/kg os
gastric mucosa = experiment: Gastrolesive action; conditions: for Mean dimensions (mm) Ulcers: 5 hours and 30 minutes after treatment, os, Ibuprofen 100 mg/kg, AFP 860 150 mg/kg
muscle relaxation = experiment: Muscle relaxant activity, metal grille test (Kondziella); assay type: in vivo; conditions: mouse, per os, AFP 860 150 mg/kg, mephenesine 100 mg/kg
From the text: Use was made of the method of Kondziella (1964) which consists in suspending the mice from a metal grille and in recording the number of animals which remain suspended for more than 30 seconds. The animals which fall off during this time period are considered to be subject to muscle relaxation.
A metal grille having a 7 mm mesh and a surface area of 2×2 m disposed horizontally at 1.5 m from the ground was used for this test. The mice were selected on the day preceding the test, rejecting those which fell within 30 seconds. These were then divided into 7 at random groups and starved. AFP 860 and, for comparison purposes, mephenesine both suspended in 1% carboxymethylcellulose were administered per os at dosages of 150 mg/kg in the case of AFP 860 and 100 mg/kg in the case of mephenesine. A third group of mice acting as the control received 1% CMC in equal volumes to those used for the mice treated with the drugs.
For each mouse the grille suspension tests were carried out 15 and 30 minutes after administration of the drugs in order to enable the evaluation of the time of maximum activity and then every 30 minutes until the muscle relaxant effect had completely disappeared in order to establish the duration of this effect.
The parameter used for evaluating the results was the percentage of animals subject to muscle relaxation with respect to those treated.

[7] = system: bronchosecretogogue activity; experiment: Bronchosecretogogue activity (Mawatari's technique); assay type: in vivo, Wistar rats; conditions: for % increase of FlNa (sodium fluorescein) with respect to controls: 500 mg/kg os
Experimental: Bronchosecretogogue activity was determined in Wistar rats by means of per os administration using the method of Mawatari (Mawatari H., Kagoshima Daiagaku Igaku-Zasshi, 27, 561 (1976), and comparing AFP 860 and guaiaphenesine at the dosages given below. The results are shown in Table 8.

[8] = Acute toxicity (Litchfield and Wilcoxon's Method), mouse; conditions: in vivo, po, per os
Experimental: as §1

[9] = system: Pleurisy induced by carrageenin; experiment: Pleurisy induced by carrageenin (Vinegar et al.); assay type: in vivo, Sprague-Dawley rats; parameters: leukocytes × 1000: unit not given here; conditions: for % inhib. over control (leukocytes) / % inhib. over control (volume of exudate) / leukocytes × 1000 / Volume (pleural exudate): 100 mg/kg per os; for Volume (pleural exudate): unit assumed
Experimental: Sprague-Dawley rats of both sexes weighing between 150 and 200 g were used. The animals were divided into "at random" groups and were starved on the previous day with water ad lib.
The compounds in question were administered orally 30 minutes before the intrapleural injection at an equal dose by weight of 100 mg/kg.

bronchial secretion = experiment: Mucosecretolytic activity (technique of Giraldez et al.); assay type: in vivo, male rabbits; conditions: for % increase of bronchial secretion over controls: 500 mg/kg os
Experimental: Mucosecretolytic action was tested on male rabbits using the technique of Giraldez, Grass and Bruseghini (Abstr.Comp.Int.Pharm. N. 1086--Paris 1978) by means of oral administration and comparing AFP 860 with guaiaphenesine at the dosages given below.

[10] = system: Hyperthermia induced by yeast; experiment: Antipyretic activity - hyperthermia induced by yeast (Boisser et al.); assay type: in vivo, male rats; conditions: for Rectal Temperature, 1 h / Rectal Temperature, 2 h / Rectal Temperature, 3 h / Rectal Temperature, 4 h / Rectal Temperature, 5 h / Rectal Temperature, basic / % inhib. over controls (hyperthermia): p.o., Ibuprofen 100 mg/kg, AFP 860 150 mg/kg
[11] = background statement; cited from earlier work
[12] = per os, Ibuprofen 100 mg/kg, AFP 860 150 mg/kg

COc1ccccc1OCC(O)COC(=O)C(C)c1ccc(CC(C)C)cc1 (stereo not shown) [AFP 860, 2-hydroxy-3-(o-methoxyphenoxy)propyl 2-(p-isobutyl-phenyl)-propionate]
anti-inflammatory activity (in words) ([1]; carrageenin oedema, compared with Ibuprofen): excellent anti-inflammatory activity which is comparable to that of Ibuprofen
Mean paw volume during treatment, time 0 ([1]; time 0, per os, Ibuprofen 100 mg/kg, AFP 860 150 mg/kg): 22.1
Mean paw volume during treatment, time 1 ([1]; time 1 (every 60 minutes), per os, Ibuprofen 100 mg/kg, AFP 860 150 mg/kg): 27.1
Mean paw volume during treatment, time 2 ([1]; time 2 (every 60 minutes), per os, Ibuprofen 100 mg/kg, AFP 860 150 mg/kg): 30.2
Mean paw volume during treatment, time 3 ([1]; time 3 (every 60 minutes), per os, Ibuprofen 100 mg/kg, AFP 860 150 mg/kg): 31.6
Mean paw volume during treatment, time 4 ([1]; time 4 (every 60 minutes), per os, Ibuprofen 100 mg/kg, AFP 860 150 mg/kg): 32.2
Mean paw volume during treatment, time 5 ([1]; time 5 (every 60 minutes), per os, Ibuprofen 100 mg/kg, AFP 860 150 mg/kg): 34.7
AREA % Absolute value [1, 12]: 176.5
AREA % inhibition over controls [1, 12]: 43.2%
LD50 [2]: 2510 mg/kg
Ibuprofen plasma levels (in words) ([3]; end of first hour to sixth hour, AFP 860 versus Ibuprofen per se): higher after the administration of AFP 860 than after the administration of Ibuprofen per se
latency and bio-availability (in words) ([3]; with respect to Ibuprofen and guaiaphenesine): greater degree of latency and an improved bio-availability both with respect to Ibuprofen and guaiaphenesine
LD50 [4]: 3300 mg/kg
pulmonary tropism (in words) ([5]; in vivo): marked pulmonary tropism
analgesic activity (in words) ([6]; 100 mg/kg orally, compared with Ibuprofen at equal dosage by weight): slightly inferior to that of Ibuprofen
% inhib. over controls (contortions) [6]: 70.45%
Mean No. of Contortions [6]: 3.9 ± 1.4
No. animals undergoing contortions [6]: 2/10
Mean dimensions (mm) Ulcers (gastric mucosa): 0.8 ± 0.3 mm
gastrolesivity (in words) (gastric mucosa; compared with Ibuprofen): much lower than the Ibuprofen
% animals subject to muscle relaxation (muscle relaxation): 60%
% increase of FlNa (sodium fluorescein) with respect to controls [7]: 24.5%
bronchosecretogogue effect (in words) ([7]; compared with guaiaphenesine, equal doses by weight): considerable effect as a bronchosecretogogue which may in practice be considered superimposable to that of guaiaphenesine
LD50 [8]: 1850 mg/kg
% inhib. over control (leukocytes) ([9]; 5 hours): 70.75%
% inhib. over control (volume of exudate) ([9]; 5 hours): 43.18%
leukocytes × 1000 ([9]; 5 hours): 5,130 × 1000
Volume (pleural exudate) ([9]; 5 hours): 0.54 mL
% inhib. over control (leukocytes) ([9]; 24 hours): 60.75%
% inhib. over control (volume of exudate) ([9]; 24 hours): 48.19%
leukocytes × 1000 ([9]; 24 hours): 7,190 × 1000
Volume (pleural exudate) ([9]; 24 hours): 0.43 mL
protective action (in words) ([9]; after 24 hours, compared with Ibuprofen): much greater than that of Ibuprofen
anti-inflammatory activity (in words) ([9]; pleurisy, equal doses by weight, compared with the comparison drug (Ibuprofen)): greater in absolute terms and of longer duration
% increase of bronchial secretion over controls (bronchial secretion): 32.7%
secretolytic activity (in words) (bronchial secretion; compared with guaiaphenesine at the same dosages by weight): remarkable secretolytic activity which is comparable with that of guaiaphenesine
Rectal Temperature, 1 h [10]: 37.7 °C
Rectal Temperature, 2 h [10]: 37.7 °C
Rectal Temperature, 3 h [10]: 37.5 °C
Rectal Temperature, 4 h [10]: 37.3 °C
Rectal Temperature, 5 h [10]: 37.2 °C
Rectal Temperature, basic [10]: 38.4 °C
antipyretic activity (in words) ([10]; compared with Ibuprofen): very good antipyretic activity, which is in practice the same as that of Ibuprofen
% inhib. over controls (hyperthermia) [10]: 127.0%

COc1ccccc1OCC(O)CO (stereo not shown) [Guaiaphenesine, 3-(o-methoxyphenoxy)-1,2-propandiol, reference compound]
% increase of FlNa (sodium fluorescein) with respect to controls [7]: 20.3%
% increase of bronchial secretion over controls (bronchial secretion): 34.4%

Cc1ccccc1OCC(O)CO (stereo not shown) [Mephenesine, reference compound]
% animals subject to muscle relaxation (muscle relaxation): 60%

CC(C)Cc1ccc(C(C)C(=O)O)cc1 (stereo not shown) [Ibuprofen, 2-(p-isobutylphenyl)propionic acid, reference compound]
AREA % Absolute value [1, 12]: 184.0
AREA % inhibition over controls [1, 12]: 40.8%
Tmax ([3]; rat, plasma, po, after Ibuprofen 27 mg/kg per os, read-out: time of Ibuprofen peak in plasma (converted)): 30 min
Cmax ([3]; rat, plasma, po, per os, equimolar: Ibuprofen 27 mg/kg, AFP 860 50 mg/kg, read-out: Ibuprofen peak plasma level): 24000 ng/mL
AUC ([3]; rat, plasma, po, per os, equimolar: Ibuprofen 27 mg/kg, AFP 860 50 mg/kg, read-out: area under the plasma level curve (AUC) for Ibuprofen): 49000 ng·h/mL
Kp at 0.5 h ([5]; lung, po, 30 mins, per os, Ibuprofen 27 mg/kg, AFP 860 50 mg/kg, read-out: Ibuprofen concentration ratio between lung and plasma): 0.2
Kp at 1 h ([5]; lung, po, 1 hour, per os, Ibuprofen 27 mg/kg, AFP 860 50 mg/kg, read-out: Ibuprofen concentration ratio between lung and plasma): 0.3
% inhib. over controls (contortions) [6]: 82.26%
Mean No. of Contortions [6]: 1.8 ± 0.6
No. animals undergoing contortions [6]: 1/10
Mean dimensions (mm) Ulcers (gastric mucosa): 8.7 ± 1.4 mm
% inhib. over control (leukocytes) ([9]; 5 hours): 69.32%
leukocytes × 1000 ([9]; 5 hours): 5,380 × 1000
% inhib. over control (leukocytes) ([9]; 24 hours): 7.47%
leukocytes × 1000 ([9]; 24 hours): 16,950 × 1000
gastric lesions (in words) [11]: considerable gastric lesions
Rectal Temperature, 1 h [10]: 38.0 °C
Rectal Temperature, 2 h [10]: 37.7 °C
Rectal Temperature, 3 h [10]: 37.3 °C
Rectal Temperature, 4 h [10]: 37.5 °C
Rectal Temperature, 5 h [10]: 37.4 °C
Rectal Temperature, basic [10]: 38.8 °C
% inhib. over controls (hyperthermia) [10]: 119.0%
